Tests used:
[1] = target: Tyrosine-protein kinase SYK (Homo sapiens) (UniProt P43405); assay: Inhibition of T7 bacteriophage fused human SYK at 10 uM by KINOMEscan analysis relative to control
[2] = target: T1, Tyrosine-protein kinase receptor TYRO3 (Homo sapiens) (UniProt Q06418); assay: Inhibition of T7 bacteriophage fused human TYRO3 at 10 uM by KINOMEscan analysis relative to control
T1 sequence (whole entry): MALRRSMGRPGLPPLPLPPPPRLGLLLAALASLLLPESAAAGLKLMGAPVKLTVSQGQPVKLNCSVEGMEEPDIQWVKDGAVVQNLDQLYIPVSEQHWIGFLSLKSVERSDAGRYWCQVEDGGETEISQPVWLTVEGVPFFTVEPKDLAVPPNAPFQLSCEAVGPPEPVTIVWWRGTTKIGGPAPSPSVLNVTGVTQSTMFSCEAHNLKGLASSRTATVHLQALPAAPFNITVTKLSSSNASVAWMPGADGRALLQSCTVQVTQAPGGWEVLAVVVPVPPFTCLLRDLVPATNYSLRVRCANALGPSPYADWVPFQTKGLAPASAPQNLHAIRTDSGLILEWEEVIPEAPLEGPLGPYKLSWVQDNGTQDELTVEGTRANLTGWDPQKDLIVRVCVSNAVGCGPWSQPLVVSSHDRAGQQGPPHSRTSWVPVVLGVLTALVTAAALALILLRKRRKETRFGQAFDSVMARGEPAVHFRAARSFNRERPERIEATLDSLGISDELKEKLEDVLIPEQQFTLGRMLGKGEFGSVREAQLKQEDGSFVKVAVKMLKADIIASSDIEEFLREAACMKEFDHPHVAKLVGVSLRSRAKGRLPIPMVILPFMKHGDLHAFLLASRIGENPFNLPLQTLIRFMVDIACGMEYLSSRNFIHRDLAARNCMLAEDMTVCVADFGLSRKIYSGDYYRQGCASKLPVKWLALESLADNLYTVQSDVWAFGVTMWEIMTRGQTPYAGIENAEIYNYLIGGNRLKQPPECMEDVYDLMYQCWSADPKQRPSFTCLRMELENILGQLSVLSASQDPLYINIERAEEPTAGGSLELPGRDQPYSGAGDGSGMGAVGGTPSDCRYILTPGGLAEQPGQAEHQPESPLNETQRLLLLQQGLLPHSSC

[3] = target: T2, Serine/threonine-protein kinase TBK1 (Homo sapiens) (UniProt Q9UHD2); assay: Inhibition of T7 bacteriophage fused human TBK1 at 10 uM by KINOMEscan analysis relative to control
T2 sequence (whole entry): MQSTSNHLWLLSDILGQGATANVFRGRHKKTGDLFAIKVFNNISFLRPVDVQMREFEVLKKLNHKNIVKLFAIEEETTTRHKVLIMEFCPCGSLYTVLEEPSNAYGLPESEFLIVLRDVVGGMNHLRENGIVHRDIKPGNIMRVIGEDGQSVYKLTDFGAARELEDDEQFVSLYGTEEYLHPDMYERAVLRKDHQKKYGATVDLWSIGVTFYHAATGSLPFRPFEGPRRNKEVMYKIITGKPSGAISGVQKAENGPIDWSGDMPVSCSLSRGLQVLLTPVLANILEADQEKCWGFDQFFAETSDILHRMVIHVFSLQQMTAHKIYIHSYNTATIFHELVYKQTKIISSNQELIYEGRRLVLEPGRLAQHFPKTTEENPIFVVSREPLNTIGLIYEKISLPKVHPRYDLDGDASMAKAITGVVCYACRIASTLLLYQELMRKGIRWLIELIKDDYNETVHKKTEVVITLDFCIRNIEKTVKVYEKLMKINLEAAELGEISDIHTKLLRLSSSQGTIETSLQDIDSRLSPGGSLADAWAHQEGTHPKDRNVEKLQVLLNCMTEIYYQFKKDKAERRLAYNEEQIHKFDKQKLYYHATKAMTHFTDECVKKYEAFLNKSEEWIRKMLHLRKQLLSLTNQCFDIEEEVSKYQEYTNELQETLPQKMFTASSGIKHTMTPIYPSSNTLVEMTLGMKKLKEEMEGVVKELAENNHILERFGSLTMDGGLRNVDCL

[4] = target: Ribosomal protein S6 kinase alpha-6 (Homo sapiens) (UniProt Q9UK32); assay: Inhibition of T7 bacteriophage fused human N-terminal RSK4 Kinase domain-1 at 10 uM by KINOMEscan analysis relative to control
Ribosomal protein S6 kinase alpha-6 (Homo sapiens), sequence (Q9UK32 whole entry, the tested form may be a part): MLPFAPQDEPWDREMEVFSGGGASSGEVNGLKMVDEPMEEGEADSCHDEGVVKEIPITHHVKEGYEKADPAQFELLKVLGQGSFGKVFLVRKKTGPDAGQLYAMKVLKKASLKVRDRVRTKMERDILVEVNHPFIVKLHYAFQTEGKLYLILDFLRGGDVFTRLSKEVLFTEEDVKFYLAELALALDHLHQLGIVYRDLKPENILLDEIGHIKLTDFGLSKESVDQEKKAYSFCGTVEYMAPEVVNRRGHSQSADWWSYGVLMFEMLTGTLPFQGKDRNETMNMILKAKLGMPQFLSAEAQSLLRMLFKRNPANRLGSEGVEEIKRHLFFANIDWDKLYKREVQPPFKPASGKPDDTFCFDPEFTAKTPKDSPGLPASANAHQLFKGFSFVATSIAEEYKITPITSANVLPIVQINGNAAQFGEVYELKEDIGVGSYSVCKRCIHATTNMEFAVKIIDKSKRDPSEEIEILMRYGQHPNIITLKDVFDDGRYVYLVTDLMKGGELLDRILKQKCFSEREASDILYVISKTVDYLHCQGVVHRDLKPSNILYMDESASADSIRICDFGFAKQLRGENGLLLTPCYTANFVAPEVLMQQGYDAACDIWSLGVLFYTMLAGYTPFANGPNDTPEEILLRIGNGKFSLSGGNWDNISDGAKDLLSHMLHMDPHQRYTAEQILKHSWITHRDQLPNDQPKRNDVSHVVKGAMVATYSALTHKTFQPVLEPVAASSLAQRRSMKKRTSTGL

[5] = target: Serine/threonine-protein kinase 32A (Homo sapiens) (UniProt Q8WU08); assay: Inhibition of T7 bacteriophage fused human YANK1 at 10 uM by KINOMEscan analysis relative to control
Serine/threonine-protein kinase 32A (Homo sapiens), sequence (Q8WU08 whole entry, the tested form may be a part): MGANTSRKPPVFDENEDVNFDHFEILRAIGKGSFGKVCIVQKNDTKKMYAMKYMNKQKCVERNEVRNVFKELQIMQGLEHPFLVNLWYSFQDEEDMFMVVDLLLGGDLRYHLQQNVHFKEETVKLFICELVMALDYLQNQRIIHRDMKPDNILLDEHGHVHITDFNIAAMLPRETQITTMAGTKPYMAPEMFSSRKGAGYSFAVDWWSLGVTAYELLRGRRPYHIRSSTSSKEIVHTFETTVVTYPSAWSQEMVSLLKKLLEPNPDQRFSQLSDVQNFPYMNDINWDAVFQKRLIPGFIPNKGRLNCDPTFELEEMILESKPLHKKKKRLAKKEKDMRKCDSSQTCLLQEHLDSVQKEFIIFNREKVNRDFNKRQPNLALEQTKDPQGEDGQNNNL

[6] = target: Serine/threonine-protein kinase 32C (Homo sapiens) (UniProt Q86UX6); assay: Inhibition of T7 bacteriophage fused human YANK3 at 10 uM by KINOMEscan analysis relative to control
Serine/threonine-protein kinase 32C (Homo sapiens), sequence (Q86UX6 whole entry, the tested form may be a part): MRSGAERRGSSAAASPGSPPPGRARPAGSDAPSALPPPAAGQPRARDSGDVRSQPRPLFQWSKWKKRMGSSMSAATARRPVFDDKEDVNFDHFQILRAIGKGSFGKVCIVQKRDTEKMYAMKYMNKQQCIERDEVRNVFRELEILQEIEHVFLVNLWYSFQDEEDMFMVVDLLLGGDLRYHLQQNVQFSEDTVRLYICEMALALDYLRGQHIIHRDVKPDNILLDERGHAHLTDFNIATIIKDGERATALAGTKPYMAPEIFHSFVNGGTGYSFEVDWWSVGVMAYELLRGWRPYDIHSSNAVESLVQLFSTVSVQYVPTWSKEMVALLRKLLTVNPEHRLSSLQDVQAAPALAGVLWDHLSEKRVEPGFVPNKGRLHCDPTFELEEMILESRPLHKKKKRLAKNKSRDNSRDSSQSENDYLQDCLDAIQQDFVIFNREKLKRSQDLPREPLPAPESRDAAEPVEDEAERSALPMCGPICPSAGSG

[7] = target: Ribosomal protein S6 kinase alpha-2 (Homo sapiens) (UniProt Q15349); assay: Inhibition of T7 bacteriophage fused human N-terminal RSK3 Kinase domain-1 at 10 uM by KINOMEscan analysis relative to control
Ribosomal protein S6 kinase alpha-2 (Homo sapiens), sequence (Q15349 whole entry, the tested form may be a part): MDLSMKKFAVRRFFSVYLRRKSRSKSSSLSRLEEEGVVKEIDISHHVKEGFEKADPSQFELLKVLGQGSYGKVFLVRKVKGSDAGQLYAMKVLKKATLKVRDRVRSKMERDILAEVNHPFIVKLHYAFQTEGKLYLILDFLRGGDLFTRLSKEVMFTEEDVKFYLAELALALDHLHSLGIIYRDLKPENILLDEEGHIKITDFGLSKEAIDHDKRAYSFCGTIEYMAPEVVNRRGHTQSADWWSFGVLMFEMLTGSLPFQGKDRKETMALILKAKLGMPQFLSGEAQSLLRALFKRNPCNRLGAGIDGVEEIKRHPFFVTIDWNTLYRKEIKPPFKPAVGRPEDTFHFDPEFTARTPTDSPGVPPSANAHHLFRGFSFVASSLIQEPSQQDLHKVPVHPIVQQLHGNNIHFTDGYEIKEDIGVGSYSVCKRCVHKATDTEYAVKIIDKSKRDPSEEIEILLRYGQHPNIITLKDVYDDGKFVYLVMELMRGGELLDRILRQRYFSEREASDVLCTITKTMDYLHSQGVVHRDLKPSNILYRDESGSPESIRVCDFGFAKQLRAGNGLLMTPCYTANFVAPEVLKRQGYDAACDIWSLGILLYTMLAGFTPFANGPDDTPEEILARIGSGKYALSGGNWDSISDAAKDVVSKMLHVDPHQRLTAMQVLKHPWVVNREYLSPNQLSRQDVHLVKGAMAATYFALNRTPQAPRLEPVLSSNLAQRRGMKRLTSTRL

[8] = target: STE20/SPS1-related proline-alanine-rich protein kinase (Homo sapiens) (UniProt Q9UEW8); assay: Inhibition of T7 bacteriophage fused human STK39 at 10 uM by KINOMEscan analysis relative to control

SMILES	inhibition [1]	inhibition [2]	inhibition [3]	inhibition [4]	inhibition [5]	inhibition [6]	inhibition [7]	inhibition [8]
COc1cc(N2CCC(N3CCN(C)CC3)CC2)ccc1Nc1ncc2c(n1)N(C)c1ccccc1C(=O)N2C	100%	100%	97%	92%	100%	100%	83%	39%
CCOc1cc(C(=O)N2CCC(N3CCN(C)CC3)CC2)ccc1Nc1ncc2c(n1)N(C1CCCC1)c1ccccc1C(=O)N2C	100%	100%	100%	100%	100%	100%	100%	100%
COc1cc(C(=O)N2CCC(N3CCN(C)CC3)CC2)ccc1Nc1ncc2c(n1)N(C1CCCC1)c1ccccc1C(=O)N2C	100%	100%	100%	100%	100%	100%	100%	100%
